≈ marks a conversion by molar mass, not a printed value. Where a SMILES comes first, the peptide text is derived from it. The star is where a group is joined. X2 = CC(C)C[C@H](NC[C@H](CCCCN)N*)C(=O)N[C@@H](CC(C)C)C(=O)N[C@@H](CCCCN)C(N)=O
Legend:
[1] = Permeability across Escherichia coli large unilamellar vesicles assessed as calcein entrapped leakage from phosphatidylglycerol/phosphatidylcholine at pH 7.4; format: ADME
[2] = tested on: Micrococcus luteus; assay: Antibacterial activity against Micrococcus luteus ATCC 9341 at pH 7.4; format: functional
[3] = tested on: Staphylococcus aureus; assay: Antibacterial activity against Staphylococcus aureus ATCC 6538 at pH 7.4; format: functional
[4] = tested on: Escherichia coli; assay: Antibacterial activity against Escherichia coli ATCC 25922 at pH 8.4; format: functional
[5] = tested on: Micrococcus luteus; assay: Antibacterial activity against Micrococcus luteus ATCC 9341 at pH 8.4; format: functional
[6] = Permeability across Escherichia coli large unilamellar vesicles assessed as calcein entrapped leakage from phosphatidylglycerol/phosphatidylcholine at pH 8.4; format: ADME
[7] = Toxicity in human erythrocytes assessed as hemolytic activity up to 200 ug/ml at pH 7.4 after 1 hr; format: cell-based; settings: erythrocyte, pH 7.4, 1 h
[8] = tested on: Staphylococcus aureus; assay: Antibacterial activity against Staphylococcus aureus ATCC 6538 at pH 8.4; format: functional
[9] = tested on: Pseudomonas aeruginosa; assay: Antibacterial activity against Pseudomonas aeruginosa ATCC 9027 at pH 7.4; format: functional
[10] = tested on: Pseudomonas aeruginosa; assay: Antibacterial activity against Pseudomonas aeruginosa ATCC 9027 at pH 8.4; format: functional
[11] = tested on: Escherichia coli; assay: Antibacterial activity against Escherichia coli ATCC 25922 at pH 7.4; format: functional
[12] = Permeability across Escherichia coli large unilamellar vesicles assessed as calcein entrapped leakage from phosphatidylglycerol/phosphatidylcholine at 7.5 uM at pH 7.4; format: ADME; settings: pH 7.4, 7.5 µM
[13] = Permeability across Escherichia coli large unilamellar vesicles assessed as calcein entrapped leakage from phosphatidylglycerol/phosphatidylcholine at 15 uM at pH 8.4; format: ADME; settings: pH 8.4, 15 µM

Activity [1]	MIC [2]	MIC [3]	MIC [4]	MIC [5]	Activity [6]	MIC [8]	MIC [9]	MIC [10]	MIC [11]	Activity [12]	Activity [13]	Compound	Activity [7]
Dose-dependent effect	6.25 µg/mL (≈ 4.07 µM)	6.25 µg/mL (≈ 4.07 µM)	25 µg/mL (≈ 16.3 µM)	6.25 µg/mL (≈ 4.07 µM)	Dose-dependent effect	12.5 µg/mL (≈ 8.14 µM)	50 µg/mL (≈ 32.5 µM)	50 µg/mL (≈ 32.5 µM)	12.5 µg/mL (≈ 8.14 µM)			CC(=O)N[C@@H](CCCCN)C(=O)N[C@@H](CC(C)C)C(=O)N[C@@H](CC(C)C)C(=O)N[C@@H](CC(C)C)C(=O)N[C@@H](CCCCN)C(=O)N[C@@H](CC(C)C)C(=O)N[C@@H](Cc1c[nH]c2ccccc12)C(=O)N[C@@H](CC(C)C)C(=O)N[C@@H](CCCCN)CN[C@@H](CC(C)C)C(=O)N[C@@H](CC(C)C)C(=O)N[C@@H](CCCCN)C(N)=O (Ac-KLLLKLWL-X2)	Not Active
Dose-dependent effect	6.25 µg/mL	6.25 µg/mL	50 µg/mL	6.25 µg/mL	Dose-dependent effect	25 µg/mL	50 µg/mL	50 µg/mL	12.5 µg/mL	90%	80%	Ac-KLLLKLWLKLLK-NH2	
